Test results from patent US20260035345A1 (Lento Bio, Inc., priority 2023, published 2026).
Converted amounts (≈) assume the structure as drawn. Read-outs that look alike come from different tables or passages of the source. Non-standard residues stand in square brackets, D forms with d. Residues, ends and D or L forms follow the SMILES beside them. Aib = CC(C)(N)C(=O)O

How the values were obtained:
[1] = tested on: ocular lenses from 8-month-old C57BL/6 mice; test: Ex vivo lens stiffness screen, single-point variant of the coverslip method; set-up: species or system mouse; details: 20 mM; for Avg. % Compress.: lenses incubated 12 hours at 37° C., 588.0 mg coverslip weight
Procedure: An ex vivo screen was conducted to evaluate the effect of multiple compounds on lens stiffness using a more efficient variant of the coverslip method (Cheng, et al., J. Vis. Exp., 111: 53986 (2016). Our variant uses a single measurement point to enable multidrug screening, utilizing a weight deemed optimal based on coverslip quantity-response curves. Previously dissected and frozen eyes from 8-month-old C57BL/6 mice were thawed, and the ocular lenses were removed via micro-dissection. Next, intact ocular lenses were immersed and incubated in test compound solutions at various concentrations for 12 hours at 37° C. Individual washed lenses were placed into a divot in a solution-filled plexiglass measurement chamber, where uncompressed axial diameter was assessed. Then 3 glass coverslips glued together, with a total weight of 588.0 mg, were placed on top of the lens, and the axial diameter was remeasured. Change in lens stiffness was calculated as the ratio between the axial diameter of compressed lens to the axial diameter of the unweighted lens (compressed/uncompressed), with higher ratios indicative of more flexibility. To address an important limitation with ex vivo lens treatment (that lens stiffness increases over time, by default, when the lens is removed from the eye post-mortem), we compared treatment with NAC to freshly dissected 8-month lenses and observed natural stiffening occurred during the 12-hour incubation period (10.34% mean compression, n=10).

[2] = Maximum soluble concentration in artificial tears; format: physicochemical; details: saline or isotonic
[3] = Aqueous humor LC/MS concentration comparison (corneal penetration); format: in vivo, mouse; details: 100 mM eyedrops 2×/day for 1 month; for concentration at 1 h: C57BL/6, mouse, aqueous humor, topical
Procedure: A study was conducted to assess the degree to which N-(2-fluoro-2-methyl-1-propylcarbonyl)-cysteine penetrated the mouse cornea, as compared to NAC and N-pivaloylcysteine.
(§1) Eight-month-old C57BL/6 mice were given […] eyedrops of 100 mM N-(2-fluoro-2-methyl-1-propylcarbonyl)-cysteine, 100 mM N-pivaloylcysteine, or 100 mM NAC for 1 month at 2×/day. 10 mice were present in each group. […] Safety via histology was positive.
On the final day aqueous humor was drawn from the eyes (average of 1-5 μL extracted) 1 hour after final dose, and the concentration of each compound quantified via LC/MS (column: Atlantis T3, 100×2.1 mm, 5 μm; mobile phases: A: Water/Formic Acid (1000/5, v/v), B: Acetonitrile/Methanol/Formic Acid (50/50/0.3, v/v/v).

[4] = tested on: Eight-month-old C57BL/6 mice; test: One-month eyedrop tolerability and histology in the aqueous humor study; format: in vivo; details: 100 mM eyedrops 2×/day for 1 month
Procedure: as §1

[5] = tested on: lens stiffness in 7-month-old C57BL/6 mice; test: In vivo efficacy: lens stiffness after eyedrop treatment (Example 4); set-up: species or system mouse; details: for average total compression: eyedrops, 28-day treatment, fluoro compound 200 mM, LACE 1.5% (PBS vehicle); for lens stiffness versus vehicle treated mice: fluoro compound 200 mM (also versus LACE), LACE 1.5%
Procedure: Rationale and goal: To determine the effect of N-acetylcysteine (NAC) and its variants on reducing lenses stiffness in vivo.
The following sample groups were tested in 7-month-old C57BL/6 mice: vehicle (artificial tears)(40 mice), N-acetylcysteine 20 mM (20 mice), N-(2-fluoro-2-methyl-1-propylcarbonyl)-cysteine 200 mM (10 mice), LACE (lipoic acid choline ester) 1.5% (PBS vehicle) (10 mice), 2-month-old mice (untreated) (7 mice).
Vehicle-treated mice averaged 199.34 micrometers total compression (std. dev 32.16). […] Mice treated with LACE averaged 209.68 micrometers total compression (std. dev 28.16).

[6] = tested on: Two-month-old C57BL/6 mice; test: Toxicology and dosing optimization in mice, 1 week of eyedrops (Example 5); format: in vivo, mouse
Procedure: A study was conducted to assess the maximum tolerable dose of N-(2-fluoro-2-methyl-1-propylcarbonyl)-cysteine (and its S-acetylated counterpart, N-(2-fluoro-2-methyl-1-propylcarbonyl)-S-acetylcysteine for lens stiffness reduction and to assess via histology whether any safety issues arose from 1 week of treatment with these compounds, particularly in the lens and cornea.
Two-month-old C57BL/6 mice were treated 2×/day with treatment compounds (see sample groups (n=5) and concentrations below). Animals were assessed for itching and scratching/blinking after dosing, hyperemia, lid swelling, discharge, and squinting, all on a scale of 1-4. Those scoring were blinded to treatment groups. Following euthanasia eyes were fixed and stained with H+E, and corneal and lens anatomy in the two highest concentration groups considered tolerable were assessed.

[7] = tested on: lens stiffness in 7-month-old C57BL/6 mice; test: Initial in vivo lens stiffness test with NAC eyedrops for one month; set-up: species or system mouse
Procedure: An initial in vivo test was conducted on NAC utilizing 7-month-old C57BL/6 mice subsequently treated for one month 2×/day with both 100 mM and 20 mM NAC eyedrops (artificial tears was used as the vehicle). During the last day, animals were sacrificed, eyes enucleated, and lenses were removed. Lens stiffness was measured by the same assay as ex vivo, with measurements taken within 5-10 minutes of lens removal. Both a 588 mg and 1047 mg weight were used in the assay.

[8] = tested on: ocular lenses from 8-month-old C57BL/6 mice; test: Ex vivo lens stiffness screen, single-point variant of the coverslip method; set-up: species or system mouse; details: 1-hour of incubation with NAC
aged mouse lenses = details: background statement; cited from earlier work
[9] = listed as N-(2-fluoro-2-methyl-1-oxopropyl)-cysteine
[10] = drawn 1 hour after final dose, LC/MS

In the case of CCC(C)(C)C(=O)N[C@@H](CS)C(=O)O, the “Avg. % Compress.” value [1] is reported as 6.29%.
For CC(=O)SCC(NC(=O)C(C)(C)F)C(=O)O (stereo not drawn), the solubility ([2]; artificial tears, read-out: maximum soluble concentration in artificial tears) was 300 mM (≈ 75.4 mg/mL).
In the case of CC(C)(F)C(=O)N[C@@H](CS)C(=O)O [listing 1 of 2 here], the “improvement over NAC in ex vivo lens stiffness” value [1, 9] is reported as “significant improvement” and the “rank of improvement among tested derivatives, ex vivo lens stiffness” value (shortened to “rank”) [1, 9] is reported as “highest mean significance as well as the highest significance vs vehicle”.
In the case of CC(C)(F)C(=O)N[C@@H](CS)C(=O)O [listing 2 of 2 here], the “rank” value [1] is reported as “superior lens stiffness reducing efficacy”, the “Avg. % Compress.” value [1] is reported as 6.87% and the “aqueous humor concentration and corneal penetration over NAC and N-pivaloylcysteine” value [3] is reported as “improved”. The concentration at 1 h [3, 10] was 47 µM, the Safety via histology [4] was “positive” and the “increase of tolerability issues including blinking or hyperemia over time” value [4] was “No noticeable increase”. For the same compound, the “improvement over NAC in vivo” value ([5]; 200 mM vs N-acetylcysteine 20 mM) was “significant improvement”, the “lens stiffness lost to aging from 2-8 months restored” value ([5]; 200 mM, relative to 2-month-old untreated mice and 8-month vehicle) was 67.9% and the average total compression [5] was 281.05 micrometers. For the same compound, the “lens stiffness versus vehicle treated mice” value [5] was “significantly reduced”, the solubility [2] was 200 mM (≈ 41.8 mg/mL) and the tolerability ([6]; 200 mM, 2×/day for 1 week) was “tolerable”. The “Histology of treated lenses” value ([6]; mouse, in vivo) was “entirely normal”.
In the case of COC(C)(C)C(=O)N[C@@H](CS)C(=O)O, the “Avg. % Compress.” value [1] is reported as 6.38%.
For CC(C)(C(=O)N[C@@H](CS)C(=O)O)c1ccccc1, the “Avg. % Compress.” value [1] was 6.18%.
For CC(C)(N)C(=O)N[C@@H](CS)C(=O)O (H-[Aib]-Cys-OH), the “Avg. % Compress.” value [1] was 5.68%.
In the case of C[N+](C)(C)CCOC(=O)CCCC[C@@H]1CCSS1 [LACE, Lipoic acid choline ester, reference compound], the average total compression [5] is reported as 209.68 micrometers and the “lens stiffness versus vehicle treated mice” value [5] is reported as “did not significantly improve”.
With CC(C)C(=O)N[C@@H](CS)C(=O)O [N-(isopropylcarbonyl)-cysteine] the “Avg. % Compress.” value [1] was 6.71%.
In the case of CCCCCC(=O)N[C@@H](CS)C(=O)O [N-(n-pentylcarbonyl)-cysteine], the “Avg. % Compress.” value [1] is reported as 4.31%.
With CC(=O)N[C@H](CS)C(=O)O [N-acetyl-D-cysteine] the “improvement versus vehicle (lens stiffness)” value ([7]; a later study, conditions not given) was “significant improvement versus vehicle but at a reduced power versus NAC”.
With CC(=O)N[C@@H](CS)C(=O)O [N-acetyl-cysteine, reference compound] the “Avg. % Compress.” value [1] was 5.76%, the “lens stiffness compared to untreated (vehicle) control lenses” value ([1]; ex vivo screen) was “significantly improved” and the aqueous humor concentration [3, 10] was 17 out of 20 samples falling below the limit of detection. The “improvement of lens stiffness compared to vehicle” value [8] was 2.07%, the “improvement in lens stiffness over vehicle” value ([7]; 20 mM eyedrops 2×/day for one month) was “minor and insignificant improvement” and the “improvement in lens stiffness over vehicle” value ([7]; 100 mM eyedrops 2×/day for one month, 588 mg and 1047 mg weights) was “significant improvement”.
With O=C(Cc1ccccc1)N[C@@H](CS)C(=O)O [N-benzylcarbonyl-cysteine] the “Avg. % Compress.” value [1] was 4.38%.
For O=C(N[C@@H](CS)C(=O)O)C1CC1 [N-cyclopropylcarbonyl-cysteine], the “Avg. % Compress.” value [1] was 6.02%.
In the case of CN(C)C(=O)N[C@@H](CS)C(=O)O [N-dimethylaminocarbonyl-cysteine], the “Avg. % Compress.” value [1] is reported as 4.19%.
In the case of O=C(N[C@@H](CS)C(=O)O)c1ccccc1 [N-phenylcarbonyl-cysteine], the “Avg. % Compress.” value [1] is reported as 5.98%.
With CC(C)(C)C(=O)N[C@@H](CS)C(=O)O [N-pivaloylcysteine, N-(2,2-dimethyl-1-oxopropyl)-cysteine] the “improvement over NAC in ex vivo lens stiffness” value [1] was “significant improvement”, the “rank” value [1] was “largest improvement” and the “Avg. % Compress.” value [1] was 6.82%. The concentration at 1 h [3, 10] was 38 µM, the Safety via histology [4] was “positive” and the “increase of tolerability issues including blinking or hyperemia over time” value [4] was “No noticeable increase”.
For CC(=O)N[C@@H](CSC(C)=O)C(=O)O [S,N-diacetylcysteine], the “lens stiffness in ex vivo treated aged mouse lenses” value (aged mouse lenses) is listed as “reduces lens stiffness”.
